Results from patent US20220040255A1, “CHEMOTHERAPEUTIC REMODELING OF THE GUT MICROBIOME” (THE SCRIPPS RESEARCH INSTITUTE, priority 2018, published 2022).
Where a SMILES comes first, the peptide text is derived from it. [ ]: non-standard residue; d: D form.

How the values were obtained:
[1] = plasma cholesterol and lipoprotein profile; type: in vivo, LDLr−/− mice; conditions: for reduction in cholesterol in the CHD mice: CHD-fed mice; for HDL-cholesterol levels / levels of VLDL and LDL / reduction of plasma total cholesterol compared to the untreated WD group: WD; for HDL-cholesterol levels / levels of VLDL and LDL: peptide-treated animals; for reduction of plasma total cholesterol compared to the untreated WD group: two-week time point, oral administration
Method: (§1) Animals and diets. LDL receptor-null (LDLr^−/−) mice on a C57BL/6J background were initially purchased from Jackson Laboratories (Bar Harbor, Me.) and were bred in house. Unless otherwise noted, all experiments were performed with 8-12 weeks old LDLr^−/− female mice. For studies involving analysis of the gut microbiome, the mice were rotated between cages and co-housed with the mice from different groups for at least one week before the beginning of each study to reduce the variation in the composition of gut microbiome caused by the housing environment. The mice were weaned at 4 weeks of age and were fed ad libitum a standard chow diet (Harlan Teklad 7019) until they were 10-weeks old, when they were switched to a high-fat diet (WD) containing 15.8% (wt/wt) fat, 1.25% (wt/wt) cholesterol, and no cholate (Harlan Teklad 94059). At the time that the WD was started, the cyclic peptide was added to the drinking water at a dose of 180 μM and the mice (female, n=8 per dosing group) were continued on WD for 10 weeks. The lyophilized peptide was dissolved in PBS (pH 7.4) containing 1% sucrose, resulting in a clear solution. The drinking water solution was replaced with fresh solution daily for c[wLwReQeR] (SEQ ID NO:11) or every other day for c[wLwKhShK] (SEQ ID NO:1). A control group of eight mice (female, n=8) was fed WD and provided vehicle (PBS with 1% sucrose) drinking water. The mice consumed approximately 4.0 mL of water per day per mouse, and there was no significant difference in water or food consumption between groups. All procedures involving live animals were approved by the Scripps Research Institute Institutional Animal Care and Use Committee.
Measurement of plasma cholesterol and liver enzyme activities. The mice were bled after an overnight fast after 2 and 10 weeks of treatment. The plasma samples were used to determine lipoprotein profiles and the levels of cholesterol, alanine aminotransferase (ALT), and aspartate aminotransferase (AST). Measurements of plasma levels of cholesterol, ALT, and AST were performed as described in Zhao et al., ACS Cent. Sci. 3, 639-646, 2017. Briefly, plasma was separated from whole blood immediately by centrifugation of the blood samples at 5,000 rpm for 10 min at 4° C., and was then stored at −80° C. Plasma total cholesterol was measured using an enzymatic fluorometric method kit (Amplex® red cholesterol assay kit, No. A12216, Life Technologies) according to the manufacturer's instructions. Plasma ALT and AST concentrations were measured using Infinity ALT (GPT) and AST (GOT) liquid stable assays, respectively, which are colorimetric kinetic assays (Thermo Scientific). Assays were performed in accordance with the manufacturer's recommendations, adjusting the reagent volumes (20 μL plasma+200 μL reagent, 0.69 cm light pathlength of the solution in the well) for analysis of samples in 96-well flat-bottom microplate format.
Plasma lipoprotein profile. Pooled plasma (240 μL total, 30 μL from each, n=8 fasted mice per group) from the two-week blood draw was used for fast protein liquid chromatography (FPLC) analysis. Lipoproteins were separated by using 3 Superdex 200 10/30 columns connected in series (GE Healthcare). The plasma was centrifuged at 11,000 rpm for 10 min at room temperature to remove particulates (floating material was gently mixed into liquid before removing the supernatant for FPLC injection). 200 μL of the pooled plasma was injected on the system eluted with 10 mM tris-HCl buffer, pH 7.4, containing 1 mM EDTA and 150 mM NaCl; a flow rate of 0.5 ml/min and fraction size of 0.5 mL were used.

gut microbiota = test: in vivo remodeling of the gut microbiome (feces 16S rRNA sequencing); design: species or system LDLr−/− mice; conditions: for overall microbiota alpha diversity: in vivo, 10-week study, peptide treatment; for time within which the Bacteroidetes/Firmicutes ratio increased relative to the vehicle WD-fed group: oral in drinking water, ~35 mg/kg/day, WD-fed LDLr−/− mice
Method: as §1
Feces sample collection and DNA extraction. The feces samples were freshly collected after 2, 6, and 10 weeks of treatment, snap-frozen, and stored at −80° C. Microbial genomic DNA was isolated with PowerSoil DNA isolation kit by following manufacturer's instructions (Mo Bio).
16S rRNA gene sequencing and processing. PCR amplicons of the V3-V4 16S rRNA region were amplified and sequenced using an Illumina MiSeq platform. For each sample, duplicate 25 μl PCR reactions were performed, each containing 50 ng of purified DNA, 12.5 μl 2×KAPA HiFi HotStart ReadyMix (Kapa biosystem), and 0.15 μM of each primer designed to amplify the V3-V4 region:
16S rRNA gene sequencing data analysis. We used custom python scripts to demultiplex sequencing reads based on the second barcode index and remove PCR duplication artifacts found using unique molecular identifiers prior to analyzing sequences using MOTHUR (version 1.36.1). […] Briefly, contigs were generated by combining forward and reverse paired-end reads. […] We performed a pre-clustering step to cluster reads up to 2 bp apart and removed all chimeric sequences. […]

atherosclerotic lesions = test: analysis of atherosclerosis (whole aorta en face, aortic sinus); type: in vivo, LDLr−/− mice; conditions: completion of the 10-week study
Method: Analysis of atherosclerosis. Atherosclerotic lesion severity was assessed in the aortae as previously described. Briefly, at euthanasia, animals were perfused with PBS, followed by 4% formaldehyde (10% UltraPure EM Grade from Polysciences diluted in PBS, pH 7.2). For en face analysis, the entire mouse aorta was dissected from the proximal ascending aorta to the bifurcation of the iliac artery by using a dissecting microscope. Adventitial fat was removed, and the aorta was opened longitudinally, pinned flat onto black dissecting wax, stained with Sudan IV, and photographed at a fixed magnification. The photographs were digitized, and total aortic areas and lesion areas were calculated by using Adobe Photoshop and NIH Image J software. The results were reported as a percentage of the total aortic area that contained lesions.
As a second assessment of atherosclerosis, lesions of the aortic root (heart sinus) were analyzed^55. Utilizing stereological principles, lesion volume was estimated across a fixed distance of the aortic sinus. After 10 min fixation in 4% paraformaldehyde, hearts were cut at an angle perpendicular to the atria of the heart and embedded in OCT (Tissue-Tek). Frozen hearts were sectioned on a Leica cryostat, with 10-μm sections collected from the beginning of the aortic sinus (defined as when a valve leaflet became visible) to 500 μm below the beginning of the sinus. […] Sections were collected in duplicate at 50-μm intervals. Sections were stained with oil red O, counterstained with Gill hematoxylin 1 (Fischer Scientific International), photographed, and digitized for lesion analysis. Scoring of valve lesion areas was done for each of the 3 valve cusps individually. Lesion areas found only within the valve cusp were measured. […] Lesion volume was calculated from an integration of the measured cross-sectional areas. Prediction of the coefficient of error (CE) in approximating lesion volume was computed using the Cavalieri estimator derived from a covariogram analysis of an ordered set of estimates of cross-sectional areas. This yielded CE values of less than 10% that were acceptable for a stereological computation of lesion volume.

Row | Structure (SMILES) | reduction in cholesterol in the CHD mice [1] | HDL-cholesterol levels [1] | levels of VLDL and LDL [1] | reduction of plasma total cholesterol compared to the untreated WD group [1] | overall microbiota alpha diversity (gut microbiota) | time within which the Bacteroidetes/Firmicutes ratio increased relative to the vehicle WD-fed group (gut microbiota) | reduction in atherosclerotic lesions, whole aorta lesion area (atherosclerotic lesions) | reduction of aortic sinus lesion volume (atherosclerotic lesions)
1 | CC(C)C[C@@H]1NC(=O)[C@@H](Cc2c[nH]c3ccccc23)NC(=O)[C@H](CCCCN)NC(=O)[C@@H](Cc2c[nH]cn2)NC(=O)[C@H](CO)NC(=O)[C@@H](Cc2c[nH]cn2)NC(=O)[C@H](CCCCN)NC(=O)[C@@H](Cc2c[nH]c3ccccc23)NC1=O [c[wLwKhShK]] (cyclo([dW]L[dW]K[dH]S[dH]K)) | no analogous peptide-mediated reduction | higher | marked reduction | 37% | unchanged | ≤ 2 weeks | 37% | 44%
2 | CC(C)C[C@@H]1NC(=O)[C@@H](Cc2c[nH]c3ccccc23)NC(=O)[C@H](CCCNC(=N)N)NC(=O)[C@@H](CCC(=O)O)NC(=O)[C@H](CCC(N)=O)NC(=O)[C@@H](CCC(=O)O)NC(=O)[C@H](CCCNC(=N)N)NC(=O)[C@@H](Cc2c[nH]c3ccccc23)NC1=O [c[wLwReQeR]] (cyclo([dW]L[dW]R[dE]Q[dE]R)) | no analogous peptide-mediated reduction | higher | marked reduction | 36% | unchanged | ≤ 6 weeks | 48% | 37%
